In brackets after ≈: the same amount, converted by molar mass.
system: Mycobacterium tuberculosis; experiment: Antitubercular activity against Mycobacterium tuberculosis; type: functional

SMILES	MIC [µg/mL]
CCCc1cc(=O)oc2c3c(c4c(c12)OC(C)(C)C=C4)O[C@H](C)[C@@H](C)[C@@H]3O [CALANOLIDE A]	3.13 (≈ 8.45 µM)

system: Mycobacterium tuberculosis; experiment: Antitubercular activity against Mycobacterium tuberculosis H37Rv; type: functional

SMILES	MIC [µg/mL]
CC1=C(C(=O)Nc2ccccc2F)C(c2ccc([N+](=O)[O-])cc2)NC(=O)N1 (centres undefined)	> 6.25
CC1=C(C(=O)Nc2ccc(C)c(C)c2)C(c2ccc([N+](=O)[O-])cc2)NC(=O)N1 (centres undefined)	> 6.25
CC1=C(C(=O)Nc2ccc(F)c(Cl)c2)C(c2cccc([N+](=O)[O-])c2)NC(=O)N1 (centres undefined)	> 6.25
CC1=C(C(=O)Nc2ccccc2F)C(c2cccc([N+](=O)[O-])c2)NC(=O)N1 (centres undefined)	> 6.25
CC1=C(C(=O)Nc2ccc(F)cc2)C(c2cccc(Cl)c2)NC(=O)N1 (centres undefined)	> 6.25
CC1=C(C(=O)Nc2ccccc2Cl)C(c2ccccc2[N+](=O)[O-])NC(=O)N1 (centres undefined)	> 6.25
CC1=C(C(=O)Nc2cc(C)ccc2C)C(c2cccc(Oc3ccccc3)c2)NC(=O)N1 (centres undefined)	> 6.25
CC1=C(C(=O)Nc2cccc(C)c2C)C(c2cccc(Oc3ccccc3)c2)NC(=O)N1 (centres undefined)	> 6.25
CC1=C(C(=O)Nc2ccccc2Cl)C(c2ccc(Cl)cc2)NC(=O)N1 (centres undefined)	> 6.25
CC1=C(C(=O)Nc2ccccc2)C(c2ccc([N+](=O)[O-])cc2)NC(=O)N1 (centres undefined)	> 6.25
CC1=C(C(=O)Nc2ccc(Cl)cc2)C(c2cccc([N+](=O)[O-])c2)NC(=O)N1 (centres undefined)	> 6.25
CC1=C(C(=O)Nc2ccc(F)cc2)C(c2cccc([N+](=O)[O-])c2)NC(=O)N1 (centres undefined)	> 6.25
CC1=C(C(=O)Nc2ccccc2C)C(c2cccc([N+](=O)[O-])c2)NC(=O)N1 (centres undefined)	> 6.25
CC1=C(C(=O)Nc2ccc(C)c(C)c2)C(c2cccc(Oc3ccccc3)c2)NC(=O)N1 (centres undefined)	> 6.25
CC1=C(C(=O)Nc2cc(C)ccc2C)C(c2ccc([N+](=O)[O-])cc2)NC(=O)N1 (centres undefined)	> 6.25
CC1=C(C(=O)Nc2cc(C)ccc2C)C(c2ccc(Cl)cc2)NC(=O)N1 (centres undefined)	> 6.25
CC1=C(C(=O)Nc2ccccc2F)C(c2ccc(O)cc2)NC(=O)N1 (centres undefined)	> 6.25
CC1=C(C(=O)Nc2ccc(C)cc2C)C(c2ccc(O)cc2)NC(=O)N1 (centres undefined)	> 6.25
CC1=C(C(=O)Nc2cccc([N+](=O)[O-])c2)C(c2ccc(O)cc2)NC(=O)N1 (centres undefined)	> 6.25
CC1=C(C(=O)Nc2ccc(F)c(Cl)c2)C(c2ccc([N+](=O)[O-])cc2)NC(=O)N1 (centres undefined)	> 6.25
CC1=C(C(=O)Nc2ccccc2Cl)C(c2cccc([N+](=O)[O-])c2)NC(=O)N1 (centres undefined)	> 6.25
CC1=C(C(=O)Nc2ccc(F)c(Cl)c2)C(c2cccc(Cl)c2)NC(=O)N1 (centres undefined)	> 6.25
CC1=C(C(=O)Nc2ccc(C)cc2C)C(c2ccc([N+](=O)[O-])cc2)NC(=O)N1 (centres undefined)	> 6.25
CC1=C(C(=O)Nc2ccc(C)cc2)C(c2cccc([N+](=O)[O-])c2)NC(=O)N1 (centres undefined)	> 6.25
CC1=C(C(=O)Nc2ccc(Cl)cc2)C(c2ccc([N+](=O)[O-])cc2)NC(=O)N1 (centres undefined)	> 6.25
CC1=C(C(=O)Nc2cc(Cl)ccc2Cl)C(c2ccc([N+](=O)[O-])cc2)NC(=O)N1 (centres undefined)	> 6.25
CC1=C(C(=O)Nc2ccc(C)c(C)c2)C(c2cccc([N+](=O)[O-])c2)NC(=O)N1 (centres undefined)	> 6.25
COc1ccc(NC(=O)C2=C(C)NC(=O)NC2c2ccc([N+](=O)[O-])cc2)cc1 (centres undefined)	> 6.25
COc1ccc(C2NC(=O)NC(C)=C2C(=O)Nc2cc(C)ccc2C)cc1 (centres undefined)	> 6.25

system: Mycobacterium tuberculosis; experiment: Antitubercular activity against Mycobacterium tuberculosis H37Rv at 6.25 ug/mL relative to control; type: functional

SMILES	inhibition at 6.25 µg/mL [%]
CC1=C(C(=O)Nc2ccccc2F)C(c2ccc([N+](=O)[O-])cc2)NC(=O)N1 (centres undefined)	4
CC1=C(C(=O)Nc2ccc(C)c(C)c2)C(c2ccc([N+](=O)[O-])cc2)NC(=O)N1 (centres undefined)	13
CC1=C(C(=O)Nc2ccc(F)c(Cl)c2)C(c2cccc([N+](=O)[O-])c2)NC(=O)N1 (centres undefined)	29
CC1=C(C(=O)Nc2ccccc2F)C(c2cccc([N+](=O)[O-])c2)NC(=O)N1 (centres undefined)	24
CC1=C(C(=O)Nc2ccc(F)cc2)C(c2cccc(Cl)c2)NC(=O)N1 (centres undefined)	38
CC1=C(C(=O)Nc2ccccc2Cl)C(c2ccccc2[N+](=O)[O-])NC(=O)N1 (centres undefined)	11
CC1=C(C(=O)Nc2cc(C)ccc2C)C(c2cccc(Oc3ccccc3)c2)NC(=O)N1 (centres undefined)	27
CC1=C(C(=O)Nc2cccc(C)c2C)C(c2cccc(Oc3ccccc3)c2)NC(=O)N1 (centres undefined)	65
CC1=C(C(=O)Nc2ccccc2Cl)C(c2ccc(Cl)cc2)NC(=O)N1 (centres undefined)	26
CC1=C(C(=O)Nc2ccccc2)C(c2ccc([N+](=O)[O-])cc2)NC(=O)N1 (centres undefined)	25
CC1=C(C(=O)Nc2ccc(Cl)cc2)C(c2cccc([N+](=O)[O-])c2)NC(=O)N1 (centres undefined)	29
CC1=C(C(=O)Nc2ccc(F)cc2)C(c2cccc([N+](=O)[O-])c2)NC(=O)N1 (centres undefined)	30
CC1=C(C(=O)Nc2ccccc2C)C(c2cccc([N+](=O)[O-])c2)NC(=O)N1 (centres undefined)	6
CC1=C(C(=O)Nc2ccc(C)c(C)c2)C(c2cccc(Oc3ccccc3)c2)NC(=O)N1 (centres undefined)	32
CC1=C(C(=O)Nc2cc(C)ccc2C)C(c2ccc([N+](=O)[O-])cc2)NC(=O)N1 (centres undefined)	4
CC1=C(C(=O)Nc2cc(C)ccc2C)C(c2ccc(Cl)cc2)NC(=O)N1 (centres undefined)	6
CC1=C(C(=O)Nc2ccccc2F)C(c2ccc(O)cc2)NC(=O)N1 (centres undefined)	18
CC1=C(C(=O)Nc2ccc(C)cc2C)C(c2ccc(O)cc2)NC(=O)N1 (centres undefined)	12
CC1=C(C(=O)Nc2cccc([N+](=O)[O-])c2)C(c2ccc(O)cc2)NC(=O)N1 (centres undefined)	2
CC1=C(C(=O)Nc2ccc(F)c(Cl)c2)C(c2ccc([N+](=O)[O-])cc2)NC(=O)N1 (centres undefined)	22
CC1=C(C(=O)Nc2ccccc2Cl)C(c2cccc([N+](=O)[O-])c2)NC(=O)N1 (centres undefined)	26
CC1=C(C(=O)Nc2ccc(F)c(Cl)c2)C(c2cccc(Cl)c2)NC(=O)N1 (centres undefined)	48
CC1=C(C(=O)Nc2ccc(C)cc2C)C(c2ccc([N+](=O)[O-])cc2)NC(=O)N1 (centres undefined)	12
CC1=C(C(=O)Nc2ccc(C)cc2)C(c2cccc([N+](=O)[O-])c2)NC(=O)N1 (centres undefined)	28
CC1=C(C(=O)Nc2ccc(Cl)cc2)C(c2ccc([N+](=O)[O-])cc2)NC(=O)N1 (centres undefined)	9
CC1=C(C(=O)Nc2cc(Cl)ccc2Cl)C(c2ccc([N+](=O)[O-])cc2)NC(=O)N1 (centres undefined)	18
CC1=C(C(=O)Nc2ccc(C)c(C)c2)C(c2cccc([N+](=O)[O-])c2)NC(=O)N1 (centres undefined)	63
COc1ccc(NC(=O)C2=C(C)NC(=O)NC2c2ccc([N+](=O)[O-])cc2)cc1 (centres undefined)	21
COc1ccc(C2NC(=O)NC(C)=C2C(=O)Nc2cc(C)ccc2C)cc1 (centres undefined)	2

Reference: ChEMBL document CHEMBL1140195, “Synthesis, screening for antitubercular activity and 3D-QSAR studies of substituted N-phenyl-6-methyl-2-oxo-4-phenyl-1,2,3,4-tetrahydro-pyrimidine-5-carboxamides” (2008)
